Measured values: PubChem BioAssay (NCI)
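Method: 48-hour compound exposure of cells in 96-well plates, five concentrations, linear interpolation of endpoints. TGI marks complete inhibition of growth.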

Columns and labels:
Assay in all cases: DTP human tumour cell line panel, 48 h
ACHN renal = tested on: ACHN renal
CAKI-1 renal = tested on: CAKI-1 renal
DU-145 prostate = tested on: DU-145 prostate
EKVX NSCLC = tested on: EKVX NSCLC
HCC-2998 colon = tested on: HCC-2998 colon
HCT-15 colon = tested on: HCT-15 colon
HT29 colon = tested on: HT29 colon
K-562 leukemia = tested on: K-562 leukemia
LOX IMVI melanoma = tested on: LOX IMVI melanoma
MALME-3M melanoma = tested on: MALME-3M melanoma
MDA-MB-231 breast = tested on: MDA-MB-231 breast
NCI/ADR-RES ovarian = tested on: NCI/ADR-RES ovarian
RPMI-8226 leukemia = tested on: RPMI-8226 leukemia
SF-268 CNS = tested on: SF-268 CNS
SF-295 CNS = tested on: SF-295 CNS
SF-539 CNS = tested on: SF-539 CNS
SK-MEL-5 melanoma = tested on: SK-MEL-5 melanoma
SNB-75 CNS = tested on: SNB-75 CNS
T-47D breast = tested on: T-47D breast
U251 CNS = tested on: U251 CNS

Compound	TGI (ACHN renal)	TGI (CAKI-1 renal)	TGI (DU-145 prostate)	TGI (EKVX NSCLC)	TGI (HCC-2998 colon)	TGI (HCT-15 colon)	TGI (HT29 colon)	TGI (K-562 leukemia)	TGI (LOX IMVI melanoma)	TGI (MALME-3M melanoma)	TGI (MDA-MB-231 breast)	TGI (NCI/ADR-RES ovarian)	TGI (RPMI-8226 leukemia)	TGI (SF-268 CNS)	TGI (SF-295 CNS)	TGI (SF-539 CNS)	TGI (SK-MEL-5 melanoma)	TGI (SNB-75 CNS)	TGI (T-47D breast)	TGI (U251 CNS)
Cc1ccc(C(=O)N/N=C(\N=Nc2cccc([N+](=O)[O-])c2)c2ccc(N(CCC#N)CCC#N)cc2C)cc1	> 100 µM	> 100 µM	> 100 µM	> 69.4 µM	> 100 µM	> 100 µM	> 100 µM	> 100 µM	> 100 µM	18.4 µM	> 79.2 µM	> 95.4 µM	> 100 µM	> 100 µM	> 92 µM	58.7 µM	28.6 µM	74.1 µM	50.7 µM	> 100 µM
C/C(=N\NS(=O)(=O)c1ccc(C)cc1)c1ccccn1	83.3 µM	> 100 µM	> 100 µM	> 100 µM	> 100 µM	> 100 µM	> 100 µM	> 100 µM	> 100 µM	> 100 µM	> 100 µM	> 100 µM	> 100 µM	> 100 µM	> 100 µM	> 100 µM	> 100 µM	> 100 µM	> 100 µM	> 100 µM
O=C(O)c1c2c(cc3c1CC(Cc1ccccc1)C3=O)CCC2 (stereo not given)	> 100 µM	> 100 µM	> 100 µM	> 100 µM	> 100 µM	> 100 µM	> 100 µM	> 100 µM	> 100 µM	> 100 µM	> 100 µM	> 100 µM	> 100 µM	> 100 µM	> 100 µM	> 100 µM	> 100 µM	> 100 µM	> 100 µM	> 100 µM
CC(C)CCNC(=O)c1ccc(CNC(=O)/C=C/c2cccc(Oc3ccccc3)c2)cc1	> 100 µM	> 100 µM	> 100 µM	> 100 µM	> 100 µM	> 100 µM	> 100 µM	> 100 µM	> 100 µM	> 100 µM	77.5 µM	> 100 µM	> 100 µM	> 100 µM	> 100 µM	> 100 µM	> 100 µM	> 100 µM	> 100 µM	> 100 µM
COc1ccc2c(c1)/C(=C\c1c(Cl)[nH]c3cc(C)c(OC)cc13)C(=O)N2	17.3 µM	20.4 µM	5.98 µM	16.5 µM	6.19 µM	5.96 µM	7.27 µM	27.7 µM	8.45 µM	19.2 µM	13.7 µM	4.04 µM	27.6 µM	8.77 µM	13.4 µM	1.24 µM	8.7 µM	4.9 µM	40.5 µM	5.55 µM
COC(=O)C1=C(OC(=O)/C(=C/c2ccccc2)c2ccc(Cl)cc2Cl)C(C(=O)OC)[C@@]2(O)[C@@H](C(=O)OC)[C@H](C)C[C@@H]1[C@@H]2C(=O)OC (stereo not given in full)	> 100 µM	> 100 µM	> 100 µM	> 100 µM	> 100 µM	> 100 µM	> 100 µM	> 100 µM	> 100 µM	> 100 µM	> 100 µM	> 100 µM	> 100 µM	> 100 µM	> 100 µM	> 100 µM	> 100 µM	> 100 µM	> 100 µM	> 100 µM
O=c1[nH]c2cc(C(F)(F)F)ccc2nc1C(F)(F)F	> 100 µM	89.9 µM	> 100 µM	> 100 µM	> 100 µM	> 100 µM	> 100 µM	> 100 µM	> 100 µM	> 100 µM	> 100 µM	> 100 µM	> 100 µM	> 100 µM	> 100 µM	94.6 µM	35.7 µM	93.6 µM	> 100 µM	> 100 µM
CCOC(=O)CCC(NC(=O)c1ccc(Nc2nc3ccc(C(F)(F)F)cc3nc2-c2ccccc2)cc1)C(=O)OCC (stereo not given)	> 100 µM	> 100 µM	> 100 µM	> 100 µM	> 85.9 µM	> 100 µM	> 100 µM	> 100 µM	> 64.2 µM	76.8 µM	58.9 µM	> 100 µM	> 100 µM	> 100 µM	> 100 µM	> 100 µM	> 100 µM	> 100 µM	60.4 µM	> 100 µM
